Assay results reported in patent US8034791B2, “Activation of Egr-1 promoter by DNA damaging chemotherapeutics” (The University of Chicago, priority 2001, dated 2011).
Like-named read-outs stand apart in the source and are kept apart here.

Columns and labels:
[1] = test system: PC-3 cells; experiment: Preliminary in vitro TNF-α induction, PC-3 cells; format: cell-based, human; details: vector treated PC-3 cells (100 MOI), 24 hrs; cisplatin 250 μM, doxorubicin 3 μM, 5-FU 20 mM, paclitaxel 14 μM
Experimental: (§1) In vitro measurement of TNF-α protein. PC-3 and PROb cells were plated in 96-well plates, grown overnight, and infected with Ad.Egr.TNF at 100 multiplicities of infection, incubated for three hrs, and were then treated with cisplatin (250 μM), doxorubicin (3 μM), 5-FU (20 mM) or paclitaxel (14 μM). Supernatants were harvested 24 hrs later and human TNF-α production was quantified by ELISA. Experiments were performed in quintuplicate.

[2] = test system: PROb cells; experiment: Chemo-inducibility of Ad.Egr-TNF.11D in vitro, PROb cells; format: cell-based, rat
Experimental: (§2) PC-3 and PROb cells were plated, infected with Ad.Egr.TNF, and incubated as discussed above. After incubation, 200 μl of CM, with or without chemotherapeutic agents, including cisplatin (250 μM), doxorubicin (3 μM), 5-fluorouracil (100 mM), gemcitabine (3 mM) and paclitaxel (14 μM) were added. Conditioned medium was harvested 24 hrs. later, and TNF-α concentration was measured (Quantikine Human TNF-α ELISA kit, R & D Systems, Minneapolis, Minn.).

[3] = test system: PROb xenografts; details: for induction of TNF-α protein: PROb xenografts, vector + IP agent vs vector alone, cisplatin 9, cyclophosphamide 160, doxorubicin 15, 5-FU 100, gemcitabine 500 mg/kg
Experimental: (§3) Saline or chemotherapeutic agents administered IP on days 1 and 2, including 9 mg/kg cisplatin, 160 mg/kg cyclophosphamide, 15 mg/kg doxorubicin, 100 mg/kg 5-FU and 500 mg/kg gemcitabine. Animals were euthanized, and xenografts were harvested 24 hrs after the second IP injection. Xenografts were snap-frozen in liquid nitrogen and homogenized in RIPA buffer (150 mM NaCl, 10 mM Tris pH 7.5, 5 mM EDTA pH 7.5, 100 mM PMSF, 1 µg/ml leupeptin and 2 μg/ml aprotinin) using a Brinkman Polytron homogenizer (Kinematica AG, Lucerne, Switzerland). After three freeze-thaw lysis cycles, the homogenate was centrifuged at 7800×g in a Sorvall RC-5C SS34 rotor (Kendro Laboratory Products, Newtown, Conn.) for 10 min at 4° C. TNF-α levels in the supernatants were measured by ELISA as described above.

[4] = test system: PROb cells; experiment: Chemo-sensitivity by MTS assay, PROb cells; format: cell-based, rat; details: Ad.Egr-TNF.11D and chemotherapy 24 hrs
Experimental: (§4) Chemo-sensitivity of PC-3 and PROb cells as determined by MTS assay. PC-3 and PROb cells were plated at a density of 10^5 cells/100 μl medium in 96-well tissue culture plates and incubated overnight. […] After incubation, 200 μl of complete media, with or without chemotherapeutic agents, was added. Chemotherapeutic agents used were at final concentrations of cisplatin at 46 and 460 μM, doxorubicin at 3 and 300 μM, 5-fluorouracil at 2 and 200 mM and paclitaxel at 1.4 and 140 μM. Media was removed 24 hrs later and each well was rinsed with 200 μl of complete media (CM) and aspirated. 100 μl of CM was then added with 20 μl of CellTiter 96® Aqueous One Solution Cell Proliferation Assay solution (Promega, Madison, Wis.), and the cells were allowed to incubate for 1 hr. Absorbance was measured at 490-650 nm.

[5] = test system: PC-3 xenografts; format: in vivo, athymic nude mice; details: vector + IP agent days 1 and 2, cisplatin 9, cyclophosphamide 160, doxorubicin 15, 5-FU 100, gemcitabine 500 mg/kg
Experimental: as §3

[6] = test system: PC-3 cells; experiment: Chemo-inducibility of Ad.Egr-TNF.11D in vitro, PC-3 cells
Experimental: as §2

[7] = test system: PROb cells; experiment: Preliminary in vitro TNF-α induction, PROb cells; format: cell-based, rat; details: PROb cells treated with Ad.TNF (100 MOI), 24 hrs; cisplatin 250 μM, doxorubicin 3 μM, 5-FU 20 mM, paclitaxel 14 μM
Experimental: as §1

[8] = test system: PC-3 cells; experiment: Chemo-sensitivity by MTS assay, PC-3 cells; format: cell-based, human; details: PC-3, Ad.Egr-TNF.11D and chemotherapy 24 hrs
Experimental: as §4

[9] = test system: PROb xenografts; format: in vivo, nude mice; details: IT vector 5×10^9 p.u. + IP agent vs vector plus NS, cisplatin 9, cyclophosphamide 160, doxorubicin 15, 5-FU 100, gemcitabine 500 mg/kg
Experimental: (§5) In vivo measurement of TNF-α protein. PC-3 (1×10^7 cells) or PROb cells (5×10^6) in 100 μl PBS were injected subcutaneously into the right hind limb of nude mice. Tumor-bearing mice received IT Ad.Egr.TNF (5×10^9 p.u. in 10 μl) with 250 μl of complete media with NS or a chemotherapeutic agent, including cisplatin (9 mg/kg), cyclophosphamide (160 mg/kg), doxorubicin (15 mg/kg), 5-fluorouracil (100 mg/kg) and gemcitabine (500 mg/kg). Each mouse IP injections were administered 20 hrs after transfection, and two consecutive IT and IP injections were given. Animals were euthanized, and xenografts were harvested 48 hrs after the second IP injection. Xenografts were snap-frozen in liquid nitrogen and homogenized in RIPA buffer (150 mM NaCl, 10 mM Tris at pH 7.5, 5 mM EDTA at pH 7.5, 100 mM PMSF, 1 μg/ml leupeptin and 2 μg/ml aprotinin). After three freeze-thaw lysis cycles, the homogenate was centrifuged for 10 minutes at 4° C. TNF-α levels in the supernatants were measured as described above.

[10] = test system: PC-3 xenografts; format: in vivo, nude mice; details: IT vector 5×10^9 p.u. + IP agent vs vector and NS, cisplatin 9, cyclophosphamide 160, doxorubicin 15, 5-FU 100 mg/kg
Experimental: as §5

[11] = test system: PROb cells; experiment: N-acetyl cysteine effects on TNF-α production in vitro, PROb cells; format: cell-based, rat
Experimental: (§6) N-acetyl cysteine effects on TNF-α production in vitro. PC-3 and PROb cells were plated and infected with Ad.Egr-TNF.11D as described above. PC-3 and PROb cells were treated with NAC at 0 mM, 10 mM, 20 mM and 30 mM, followed immediately by the addition of 100 mM 5-FU. Conditioned medium was collected after 24 hrs of incubation at 37° C. and stored at −20° C. TNF-α levels were determined by ELISA.
(§7) PC-3 and PROb cells were plated and infected with Ad.Egr-TNF.11D as above. Prior to the addition of chemotherapeutic agents (cisplatin, doxorubicin, 5-FU, gemcitabine and paclitaxel), 20 mM NAC in 0.1 ml complete medium was added to each well. Conditioned medium was collected after 24 hrs. of incubation at 37° C., and stored at −20° C. TNF-α levels were determined by ELISA.

[12] = test system: PC-3 cells; experiment: N-acetyl cysteine effects on TNF-α production in vitro, PC-3 cells; format: cell-based, human
Experimental: as §6, §7

[13] = test system: Egr-1 promoter; experiment: In vitro luciferase reporter assay, PROb cells; format: cell-based, rat
Experimental: (§8) In vitro luciferase reporter assay. […] JM109 competent cells (Stratagene, La Jolla, Calif.) were transformed with these plasmids, endotoxin-free maxipreps (Qiagen, Valencia, Calif.) were prepared, and product confirmation was performed by PCR, sequencing, enzyme restriction, and gel electrophoresis.
(§9) All groups were co-transfected with the Renilla luciferase reporter plasmid construct pRL-TK (HSV thymidine kinase promoter) to normalize for transfection efficiency. […] Cells were harvested 6 hrs later, and luciferase activity was measured using the Dual-Luciferase reporter assay system (Promega).

[14] = test system: Seg-1 xenografts; experiment: In vivo regrowth study, Seg-1 xenografts; parameters: species or system athymic nude mice; details: IT vector 2×10^8 p.u., IP cisplatin 3 mg/kg, 4 daily injections, cisplatin line = with null vector
Experimental: (§10) In vivo regrowth studies. Seg-1 or PROb cells (5×10^6/0.1 ml) were injected in the right hind limb of nude mice. […] IP NS or cisplatin injections were given following the IT vector injection, and 4 consecutive daily IT and IP injections were given. Xenografts were measured every 2 days using calipers and tumor volume was calculated (length×width×thickness)/2. Fractional tumor volumes (V/Vo, Vo=day 0 volume) were calculated and plotted.

[15] = test system: Egr-1 promoter; experiment: In vitro luciferase reporter assay, Seg-1 cells; format: cell-based, human
Experimental: as §8, §9

[16] = test system: PROb xenografts; experiment: In vivo regrowth study, PROb xenografts; parameters: species or system athymic nude mice; details: IT vector 2×10^8 p.u., IP cisplatin 3 mg/kg, 4 daily injections, cisplatin line = with null vector
Experimental: as §10

[17] = vector-infected PROb cells, 24 hrs, cisplatin 250 μM, doxorubicin 3 μM, 5-FU 100 mM, gemcitabine 3 mM, paclitaxel 14 μM
[18] = higher concentration: cisplatin 460 μM, doxorubicin 300 μM, 5-FU 200 mM, taxol 140 μM
[19] = lower concentration: cisplatin 46 μM, doxorubicin 3 μM, 5-FU 2 mM, taxol 1.4 μM
[20] = vector-infected PC-3 cells, 24 hrs, cisplatin 250 μM, 5-FU 100 mM, gemcitabine 3 mM, paclitaxel 14 μM

O=c1[nH]cc(F)c(=O)[nH]1 [5-FU, 5-fluorouracil]
increased TNF levels [1]: 1.8 fold
increase in TNF-α levels [2, 17]: 1.7 fold
induction of TNF-α protein [3]: 1.9 fold
surviving fraction [4, 18]: 38%
surviving fraction [4, 19]: 69%
increase in TNF-α levels [5]: 4.4 fold
increase in TNF-α levels [6, 20]: 67.4 fold
increased TNF levels [7]: 2.3 fold
surviving fraction [8, 18]: 20%
surviving fraction [8, 19]: 80%
increased TNF-α levels [9]: 1.9 fold
induced TNF-α [10]: 4.2 fold

CC(=O)N[C@@H](CS)C(=O)O [NAC, N-Acetylcysteine]
effect on induction of TNF-α ([11]; PROb cells treated with cisplatin, 5-FU, gemcitabine or paclitaxel (data not shown)): significantly reduced the induction of TNF-α
effect on induction of TNF-α ([11]; PROb cells, 3 μM doxorubicin, 20 mM NAC): significantly reduced the induction of TNF-α
effect on concentration of TNF-α protein ([12]; Ad.Egr-TNF.11D transduced PC-3 cells treated with cisplatin, 5-FU, gemcitabine and paclitaxel, 20 mM NAC): significantly decreased the concentration of TNF-α protein
effect on concentration of TNF-α protein ([12]; PC-3 cells infected with Ad.Egr-TNF.11D and treated with 100 mM 5-FU, NAC 10 mM to 30 mM): decrease the concentration of TNF-α protein

N.N.[Cl][Pt][Cl] [cisplatin]
increased TNF levels [1]: 6.5 fold
LA ([13]; PROb cells transfected with pGL3 425, 50 μM cisplatin): 49.40
increase in LA ([13]; PROb cells transfected with pGL3 425, 50 μM cisplatin vs untreated control): 3.6 fold
increase in TNF-α levels [2]: 1.3 fold
induction of TNF-α protein [3]: 2.6 fold
surviving fraction [4, 18]: 77%
surviving fraction [4, 19]: 77%
increase in TNF-α levels [5]: 3.1 fold
increase in TNF-α levels [6]: 3.8 fold
increased TNF levels [7]: 1.6 fold
tumor regression [14]: moderate tumor regression
surviving fraction [8, 18]: 60%
surviving fraction [8, 19]: 90%
LA ([15]; Seg-1 cells transfected with pGL3 425, 50 μM cisplatin): 2.89
increase in LA ([15]; Seg-1 cells transfected with pGL3 425, 50 μM cisplatin vs untreated control): 2.0 fold
tumor regression [16]: moderate tumor regression
increased TNF-α levels [9]: 1.9 fold
induced TNF-α [10]: 3.5 fold

O=P1(N(CCCl)CCCl)NCCCO1 (centres unmarked) [cyclophosphamide, Cyclophosphamide]
induction of TNF-α protein [3]: 3.0 fold
increase in TNF-α levels [5]: 4.4 fold
increased TNF-α levels [9]: 2.8 fold
induced TNF-α [10]: 4.4 fold

CC(=O)O[C@H]1C(=O)[C@@]2(C)[C@H]([C@H](OC(=O)c3ccccc3)[C@]3(O)C[C@H](OC(=O)[C@H](O)[C@@H](NC(=O)c4ccccc4)c4ccccc4)C(C)=C1C3(C)C)[C@]1(OC(C)=O)CO[C@@H]1C[C@@H]2O [paclitaxel, Paclitaxel]
increased TNF levels [1]: 1.8 fold
increase in TNF-α levels [2, 17]: 4.5 fold
systemic toxicity ([3]; mouse, in vivo): severe systemic toxicity
surviving fraction [4, 18]: 8%
surviving fraction [4, 19]: 85%
increase in TNF-α levels [6, 20]: 1.7 fold
increased TNF levels [7]: 3.0 fold
surviving fraction [8, 18]: 10%
surviving fraction [8, 19]: 80%

Gemcitabine diphosphate
increase in TNF-α levels [2, 17]: 3.5 fold
induction of TNF-α protein [3]: 2.5 fold
increase in TNF-α levels [5]: 3.1 fold
increase in TNF-α levels [6, 20]: 2.7 fold
increased TNF levels [7]: 5.4 fold
increased TNF-α levels [9]: 1.8 fold
